# Measured values taken from US4623656A, “Method for inhibiting monoamine oxidase-A and treating depression by administering 3-N-methyl-thioxanthen-9-one carboxamide 10,10-dioxide” (priority 1984, dated 1986).
# Assays:
# [1] = target: T1, MAO-A (Rattus norvegicus, UniProt P21396); test: In vitro MAO-A inhibition, double-label assay, mitochondrial extracts of rat brain; type: biochemical
# T1 construct: mitochondrial extracts of rat or human brain; from tissue; host or cells: rat brain, mitochondrial extract
# T1 sequence (P21396 1-526): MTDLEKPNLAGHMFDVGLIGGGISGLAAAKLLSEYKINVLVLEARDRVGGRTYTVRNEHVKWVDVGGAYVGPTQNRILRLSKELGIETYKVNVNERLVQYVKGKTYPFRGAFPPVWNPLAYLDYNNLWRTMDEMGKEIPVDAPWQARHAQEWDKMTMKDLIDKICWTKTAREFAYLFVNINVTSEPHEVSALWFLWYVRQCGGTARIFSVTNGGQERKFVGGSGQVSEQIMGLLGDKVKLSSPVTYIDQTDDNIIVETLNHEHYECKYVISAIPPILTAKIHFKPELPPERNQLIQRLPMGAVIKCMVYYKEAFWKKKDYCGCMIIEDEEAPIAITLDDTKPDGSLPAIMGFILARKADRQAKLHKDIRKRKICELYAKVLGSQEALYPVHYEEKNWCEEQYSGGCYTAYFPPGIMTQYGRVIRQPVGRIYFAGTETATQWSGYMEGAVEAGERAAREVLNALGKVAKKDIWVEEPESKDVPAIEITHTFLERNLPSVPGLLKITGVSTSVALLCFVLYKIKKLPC
# Description: (§1) MAO was assayed with [^3 H] serotonin (0.2 mM, 5 Ci/mol) and [^14 C] β-phenethylamine (10 μM, 3 Ci/mol) as substrates in a double-label assay (White and Glassman, J. Neurochem 29:987-97 1977).
# [2] = target: T2, MAO-A (Homo sapiens, UniProt P21397); test: In vitro MAO-A inhibition, double-label assay, mitochondrial extracts of human brain; type: biochemical
# T2 construct: mitochondrial extracts of rat or human brain; from tissue; host or cells: human brain, mitochondrial extract
# T2 sequence (P21397 1-527): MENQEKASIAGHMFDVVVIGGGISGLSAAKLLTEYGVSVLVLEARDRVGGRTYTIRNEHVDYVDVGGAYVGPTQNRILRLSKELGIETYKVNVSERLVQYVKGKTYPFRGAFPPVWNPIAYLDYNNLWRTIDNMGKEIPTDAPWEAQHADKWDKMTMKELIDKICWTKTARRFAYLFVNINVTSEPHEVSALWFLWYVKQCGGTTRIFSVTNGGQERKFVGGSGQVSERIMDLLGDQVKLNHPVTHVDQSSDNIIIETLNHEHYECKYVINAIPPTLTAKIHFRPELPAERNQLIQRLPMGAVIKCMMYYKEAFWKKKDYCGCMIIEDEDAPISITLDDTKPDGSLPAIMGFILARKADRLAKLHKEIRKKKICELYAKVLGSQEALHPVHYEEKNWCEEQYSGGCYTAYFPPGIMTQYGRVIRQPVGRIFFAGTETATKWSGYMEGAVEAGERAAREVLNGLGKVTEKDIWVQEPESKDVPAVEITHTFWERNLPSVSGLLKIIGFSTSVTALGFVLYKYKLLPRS
# Description: as §1
# [3] = target: MAO-A; test: Kinetic mechanism of MAO-A inhibition (single substrate varied); type: biochemical, rat or human
# Description: For studies of the kinetic mechanism of inhibition, the above method was used, except that a single substrate (serotonin or tyramine) was varied over a 10-fold concentration range that included the Km concentration. MAO activity was determined in the absence and presence of the compound under test at each substrate concentration in duplicate assays.
# [4] = test system: MAO-A (brain); test: In vivo inhibition of brain MAO-A in orally pretreated rats; parameters: species or system rat; conditions: for Percentage Inhibition of MAO-A, Brain: 3 hr after oral dosing; for Inhibition of brain MAO-A by the time of tyramine administration: single oral dose, equipotent doses for tyramine test
# Description: (§2) To determine MAO inhibition in brains and livers of rats pretreated with reversible inhibitors, it was necessary to use an assay procedure that minimized dilution of the inhibitor. Thus, high concentrations of brain tissue homogenates were incubated for very short incubation times. For brain assays, initial tissue was 3-fold diluted into each assay. Because of the very high MAO activity in liver homogenates, further dilution of tissue was necessary in order to obtain reliable data. In this case, three different homogenate concentrations were assayed, and precent inhibition was extrapolated to zero tissue dilution. Substrate concentrations were not saturating, but were chosen relative to Km values for serotonin and phenethylamine in order to give an estimate of MAO-A and B, respectively.
# (§3) Brains from pretreated male Sprague-Dawley rats (sacrificed 3 hours after oral dosing), were homogenized in a buffer consisting of 0.1M potassium phosphate and 5% sucrose (pH 7.4) at a 1:1 tissue wt/buffer volume ratio, using a motorized Teflon/glass homogenizer. MAO-A and B were determined by incubating 100 μl of tissue homogenate with 50 μl of a double-label substrate mixture to give final concentrations of [^3 H] serotonin, 0.4 mM (5 Ci/mol); and [^14 C] β-phenethylamine, 20 μM (3 Ci/mol). For blank assays 100 μl portions of homogenate were pre-incubated at 37° C. with pargyline (4 mM) before substrate addition. Incubations were at 37° C. for 30 sec. Assay mixtures were then acidified and products extracted as in the above in vitro method (White and Glassman). Liver tissue was homogenized in the above phosphate-sucrose buffer at a 1:5 tissue wt/buffer volume ratio. Portions (5, 10 and 50 μ l) of each homogenate were assayed with 50 μl of the above double-label substrate mixture in a total assay volume of 150 μl 0.067M potassium phosphate, pH 7.4. Blank assays included the same amounts of homogenate pre-incubated with 4 mM pargyline for 15 min at 37° C. After addition of substrates, mixtures were incubated at 37° C. for 20 sec, acidified, and products extracted as above. Percent inhibition for each liver homogenate was obtained by plotting % inhibition vs. reciprocal of tissue concentration and extrapolating back to zero dilution.
# [5] = test system: MAO-A (liver); test: In vivo inhibition of liver MAO-A in orally pretreated rats; parameters: species or system rat; conditions: for Percentage Inhibition of MAO-A, Liver: 3 hr after oral dosing, extrapolated to zero tissue dilution; for Inhibition of liver MAO-A by the time of tyramine administration: single oral dose, equipotent doses for tyramine test
# Description: as §2, §3
# [6] = test system: MAO-B (brain); test: In vivo inhibition of brain MAO-B in orally pretreated rats; parameters: species or system rat; conditions: 12.5-50 mg/kg p.o., 3 hr after oral dosing
# Description: as §2
# (§4) Brains from pretreated male Sprague-Dawley rats (sacrificed 3 hours after oral dosing), were homogenized in a buffer consisting of 0.1M potassium phosphate and 5% sucrose (pH 7.4) at a 1:1 tissue wt/buffer volume ratio, using a motorized Teflon/glass homogenizer. MAO-A and B were determined by incubating 100 μl of tissue homogenate with 50 μl of a double-label substrate mixture to give final concentrations of [^3 H] serotonin, 0.4 mM (5 Ci/mol); and [^14 C] β-phenethylamine, 20 μM (3 Ci/mol). […]
# [7] = test system: MAO-B (liver); test: In vivo inhibition of liver MAO-B in orally pretreated rats; parameters: species or system rat; conditions: 12.5-50 mg/kg p.o., 3 hr after oral dosing
# Description: as §2, §4
# [8] = test system: MAO; test: Time course of in vivo MAO inhibition after oral dosing (other experiments, tissue not stated); parameters: species or system rat; conditions: oral dose of 50 mg/Kg
# Description: as §2
# as §3, with “([…]),” for “(sacrificed 3 hours after oral dosing),”, “Percent inhibition for each liver homogenate was obtained by plotting % inhibition vs. reciprocal of tissue concentration and extrapolating back to zero dilution.” left out
# [9] = test system: hypertensive activity; test: Hypertensive activity with orally ingested tyramine in test animals; type: in vivo; conditions: oral antidepressant doses prior to orally ingested tyramine
# [10] = test system: tetrabenazine-induced sedation; test: Prevention of tetrabenazine-induced sedation; type: in vivo, Charles River CD-1 male mice
# Description: Charles River CD-1 male mice (18-22 gm) were pretreated orally with various doses of Compound I or the reference standard, phenelzine, 60 min, 3 hr, or 5 hr before injection of tetrabenazine (35 mg/kg i.p.). […] Thirty minutes after injection of tetrabenazine, each mouse was scored on an arbitrary scale from one to four according to Vernier et al., ([…] Syomp. on Psychosomatic Medicine, J. H. Nodin and J. H. Moyer Eds., Lea and Febiger, Philadelphia, 1962, pp 683-90) for both depression of exploratory behaviour and presence or absence of blepharoptosis. Ratings were converted to a percent of rating received by mice receiving […] prior to tetrabenazine administration.
# [11] = read-out: I50, inhibition of MAO-A
smiles,measurement,setting,value
"CNC(=O)c1ccc2c(c1)S(=O)(=O)c1ccccc1C2=O [Compound I, 3-N-methylcarbamoylthioxanthen-9-one 10,10-dioxide]",Inhibition of MAO-A (in words),[1],potent selective inhibition of MAO-A
same,IC50,[1]; [11],50 nM
same,Inhibition of MAO-A (in words),[2],potent selective inhibition of MAO-A
same,IC50,[2]; [11],50 nM
same,Ki,"[3]; serotonin as substrate, mitochondrial extracts of rat or human brain",16 nM
same,Mechanism of inhibition,"[3]; vs. the substrates, serotonin or tyramine",competitive
same,"Percentage Inhibition of MAO-A, Brain",[4]; 12.5 mg/kg p.o.,37 ± 16%
same,"Percentage Inhibition of MAO-A, Brain",[4]; 25 mg/kg p.o.,49 ± 10%
same,"Percentage Inhibition of MAO-A, Brain",[4]; 50 mg/kg p.o.,78 ± 2%
same,Inhibition of brain MAO-A by the time of tyramine administration,[4],approximately 80%
same,"Percentage Inhibition of MAO-A, Liver",[5]; 12.5 mg/kg p.o.,79 ± 5%
same,"Percentage Inhibition of MAO-A, Liver",[5]; 25 mg/kg p.o.,94 ± 4%
same,"Percentage Inhibition of MAO-A, Liver",[5]; 50 mg/kg p.o.,92 ± 4%
same,Inhibition of liver MAO-A by the time of tyramine administration,[5],≥ 90%
same,"Inhibition of MAO-B, brain",[6],no significant inhibition of MAO-B in either tissue
same,"Inhibition of MAO-B, liver",[7],no significant inhibition of MAO-B in either tissue
same,Reversibility of the in vivo inhibition,[8],indicating reversibility of the in vivo inhibition
same,Time of maximum inhibition,[8],3 to 7 h
same,Inhibition at 24 hours after dosing,[8]; 24 hours after dosing,negligible
same,Hypertensive activity (in words),[9],No significant hypertensive activity
same,ED50,"[10]; Mus musculus, 1.5 h, oral, 90 minutes, tetrabenazine 35 mg/kg i.p.",49 ± 10 mg/kg
same,Prevention of tetrabenazine-induced sedation (in words),"[10]; oral, 90 minutes, tetrabenazine 35 mg/kg i.p.",dose-dependent prevention of tetrabenazine-induced sedation
same,ED50 at 3 hr after treatment (in words),"[10]; oral, 3 hr after treatment, tetrabenazine 35 mg/kg i.p.",essentially the same as those found at 90 min
same,ED50 at 5 hr after treatment (in words),"[10]; oral, 5 hr after treatment, tetrabenazine 35 mg/kg i.p.",essentially the same as those found at 90 min
"NNCCc1ccccc1 [phenelzine, reference compound]",Inhibition of brain MAO-A by the time of tyramine administration,[4],approximately 80%
same,Inhibition of liver MAO-A by the time of tyramine administration,[5],≥ 90%
"COc1cc2c(cc1OC)C1CC(=O)C(CC(C)C)CN1CC2 (stereo not drawn) [tetrabenazine, reference compound]",Treated mice remaining motionless with marked blepharoptosis,[10]; tetrabenazine 35 mg/kg i.p. (challenge agent),90-100%
